Type in all cases: in vivo
Series [1] has as its system Varroa jacobsoni (Varroa mites). Kind of series: Efficacy against Varroa jacobsoni parasites on topically treated infested honeybees. Conditions: 1 µl acetone droplet on dorsal abdomen of bee, 5 days at 31°C. The procedure:
(§1) In this evaluation, honeybees (Apis mellifera) taken from hives which are 70-90% infested with Varroa jacobsoni (Varroa mites) are chilled to immobilize the bees. A 1 µl droplet of an acetone solution of tebufenpyrad is applied to the dorsal abdomen of each bee. Control bees receive 1 µl droplet of acetone. A total of 50-52 bees are treated for each dose rate tested. Treatment dose rates are based upon the LD50 (dose rate required to obtain 50% mortality of healthy uninfected bees) of tebufenypyrad and are set at 10% of the LD50 and subsequent 10-fold dilution thereof. The treated bees are placed in an incubator at 31°C in the dark and fed 50% sugar water ad libitum for 5 days. After incubation, the bees are examined for mortality and mite infestation. The results are shown in Table I below, as % mortality of the total of the bees and the total of the mites.

Series [2] concerns honeybees (Apis mellifera). Kind of series: Mortality of topically treated honeybees in the Varroa jacobsoni evaluation. The following applies: 1 µl acetone droplet on dorsal abdomen, 5 days at 31°C. How it is done:
as §1

Series [3] deals with Acarapis woodi (trachea mites). Kind of series: Efficacy against Acarapis woodi parasites, contact with treated glass slides. Conditions: slides dipped in 500 ppm acetone solution. The procedure: In this evaluation, honeybees (Apis mellifera) which are infested with Acarapis woodi (trachea mites) are dissected to remove the infested tracheae. Glass microscope slides are dipped into acetone solutions of tebufenpyrad (500 ppm)and the acetone is allowed to evaporate. Infested tracheae are placed directly on the treated slides. The mites are removed from the tracheae by dissection and forced to walk across the treated area. The elapsed time is recorded for 100% mortality, i.e. no movement is observed upon agitation.

For series [4], the system named is Varroa jacobsoni. Kind of series: Field evaluation against Varroa jacobsoni in infested beehives, stickyboard mite count. The following applies: two strips with 18% tebufenpyrad in 60:40 beeswax:lard, count taken 24 hours after treatment. From the text:
In this evaluation, two Varroa jacobsoni infested beehives are monitored for the extent of infestation using stickyboards inserted at the bottom of the hive. Data are presented as the number of mites trapped on the stickyboard per day. Two strips (2.5 x 17cm) containing 18% tebufenpyrad dissolved in a 60:40 beeswax:lard (Crisco®) mixture are inserted into each hive brood chamber as per standard practice. One day after treatment, the stickyboards are removed and the dead mites counted.

Regarding `CCc1nn(C)c(C(=O)NCc2ccc(C(C)(C)C)cc2)c1Cl` [Tebufenpyrad, N-(4-t-butylbenzyl)-4-chloro-3-ethyl-1-methylpyrazole-5-carboxamide], the “% Mortality Parasites” value amounted to 58% in series [1] (dose 0.006 µg/bee), 44% in series [1] (dose 0.06 µg/bee) and 92% in series [1] (dose 0.6 µg/bee). Moreover, the “% Mortality Bees” value in series [2] (dose 0.006 µg/bee) came to 24%; in series [2] (dose 0.06 µg/bee) it was 25%; in series [2] (dose 0.6 µg/bee), 28%. The “Time required in minutes to achieve 100% mortality” value in series [3] (Rep. 1, 7 mites) was 8.5 min; in series [3] (Rep. 2, 10 mites), 8 min; in series [3] (Rep. 3, 7 mites), 8 min. The Treatment mites/day in series [4] (Hive 1, pretreatment 101 mites/day) came out at 1777 mites/day; in series [4] (Hive 2, pretreatment 66 mites/day), 1080 mites/day.

These data come from patent publication EP0972448A2, “Parasitic mite control on beneficial insects” (American Cyanamid Company, priority 1998, dated 2000).
